According to PubChem BioAssay AID1918954 (Molecular Pharmacology Branch, DTP, NCI, 2023):
pIC50: −log10 of the molar value. “And” between values parts separate entries of the source, which are not always exact repeats. Equal entries are not always repeated.

System: MDA-MB-468 complex spheroids with HUVEC/MSC, viability
Assay: Anticancer human tumor MDA-MB-468 cell line growth inhibition;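 also: spheroids exposed to agents for seven days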;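 as to viability, T/C: 100% = DMSO vehicle control viability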
Details: for viability, T/C: stronger effect = lower value; for pIC50: curve of compound
Description: Multicellular complex tumor spheroid response to LSD1 Inhibitor Iadademstat in combination with a variety of drugs and investigational agents in selected tumor cell lines
The current study was undertaken to assess response to LSD1 inhibitors in combination with standard-of-care drugs and investigational agents in solid tumor complex spheroid models as well as in the K-562 leukemia. Complex spheroids include a stromal component modeled by human endothelial cells (HUVEC) and fibroblasts modeled by human mesenchymal stem cells (MSCs). The concentration ranges selected for each drug and investigational agent were based upon clinically achievable concentrations if the clinical Cmax of the agent was known.
Compounds. The drugs and investigational agents used in this study are listed on Table 1. All of the agents used, including staurosporine (NSC755774) and gemcitabine (NSC613327), were obtained from the Developmental Therapeutics Program, NCI. FDA-approved anticancer drugs are available from the NCI at http://dtp.nci.nih.gov/branches/dscb/oncology_drugset_explanation.html. Drugs and investigational agents were >95% pure by proton nuclear magnetic resonance (NMR) and liquid chromatography/mass spectrometry (LC/MS). Stock solutions were prepared at 400x in DMSO, stored at -70 degrees C, and diluted in fresh medium prior to their use. The final concentration of DMSO in cell culture wells never exceeded 0.25% (v/v). The FDA-approved anticancer drug set is available from the Developmental Therapeutics Program at https://dtp.cancer.gov/organization/dscb/obtaining/available_plates.htm. All drugs and investigational agents were tested over a range starting from a high concentration at or near the clinical Cmax and decreasing in half-log increments. If the clinical Cmax for an agent had not been determined, the highest concentration tested was 10 microM.
Cell Lines. The patient-derived cancer cell (PDC) lines: 292921-168-R-J2-PDC, K24384-001-R-PDC, and 521955-158-R2-J5-PDC pancreatic carcinomas, 556581-035-R-J1 ovarian carcinoma, 324938-238-R-J1-PDC, 855422-203-R-J1-PDC and 883617-216-R-J1-PDC urothelial bladder carcinomas, 743489-274-T-PDC renal cell carcinoma, 138582-R-J1 Merkel cell tumor, K60290-347-R-J1 and K57222-313-R-J1-PDC glioblastomas, 653999-131-R-J2-PDC, LG0703-F948-PDC, and 349418-098-R-PDC non-small cell lung carcinomas, 885512-296-R-J2-PDC, 171881-019-R-J1-PDC breast carcinomas and 186277-243-T-J2-PDC and 233499-124-R-J2-PDC colon carcinomas were obtained from the NCI Patient-Derived Models Repository (PDMR, https://pdmr.cancer.gov). The established cell lines NCI/ADR-RES (RRID:CVCL_14520 and OVCAR-5 (RRID:CVCL_1628) ovarian carcinomas, 786-O (RRID:CVCL_1051) and A498 (RRID:CVCL_A498) renal cell carcinoma, NCI-H211 (ATCC, cat. CRL-5824; RRID:CVCL_1529), NCI-H196 (ATCC, cat. CRL-5823, RRID:CVCL_1509), SW 1271 (ATCC, cat. CRL-2177, RRID:CVCL_1716) and NCI-H1876 (ATCC, cat. CRL-5902, RRID:CVCL_1503) small cell lung carcinomas, MDA-MB-231 (RRID:CVCL_0062) and MDA-MB-468 (RRID:CVCL_0419)breast carcinomas (10-12). Pooled donor human umbilical vein endothelial cells (HUVEC, Lonza, cat. CC-2519) and human mesenchymal stem cells (hMSC, Lonza, cat. PT-2501) were purchased from Lonza (Walkersville, MD).
Cell Culture. All cells were maintained in an incubator at 37 degrees C and 5% CO2 with 95% humidity. The PDC lines were cultured according to standard operating procedures established by the NCI PDMR (https://pdmr.cancer.gov). Briefly all PDCs were thawed and cultured in Matrigel-coated flasks prepared with a working solution of 1X Ham's F-12 nutrient mix, without supplementation (Invitrogen, Waltham, MA, cat. 11765054), 100 U/mL penicillin-streptomycin (Invitrogen, cat. 15140122), and 2.5% Matrigel (Corning Inc., Corning, NY, cat. 354248) for the first three passages. […]

For `CC(C)CC(NC(=O)C(Cc1ccccc1)NC(=O)c1cnccn1)B(O)O` (centres undefined), the viability, T/C (compound 0.00316 µM) was 0.95% and 0.15%, the viability, T/C (compound 0.01 µM) was 1.2% and 0.15% and the viability, T/C (compound 0.0316 µM) was 1.22% and 0.17%. For the same molecule, the viability, T/C (compound 0.1 µM) was 1.51% and 0.22% and the pIC50 was 9.16 and > 9.50.

For `CC(C)CC(NC(=O)CNC(=O)c1cc(Cl)ccc1Cl)B1OC(=O)CC(CC(=O)O)(C(=O)O)O1` (centres undefined), the viability, T/C (compound 0.000316 µM) was 109%, the viability, T/C (compound 0.001 µM) was 90.5% and 96.4% and the viability, T/C (compound 0.00316 µM) was 55.3% and 42.1%. For the same molecule, the viability, T/C (compound 0.01 µM) was 11.1% and 5.88%, the viability, T/C (compound 0.0316 µM) was 1.51% and 0.31% and the viability, T/C (compound 0.1 µM) was 1.72% and 0.22%. The pIC50 was 8.46 and 8.57.

For `CC(C)c1c(-c2ccccc2)nc2c(C#N)c[nH]n2c1=O`, the viability, T/C (compound 0.0316 µM) was 111% and 87.3%, the viability, T/C (compound 0.1 µM) was 101% and 89.5% and the viability, T/C (compound 0.316 µM) was 91.4% and 78.7%. The viability, T/C (compound 1 µM) was 101% and 96.7%, the viability, T/C (compound 3.16 µM) was 92% and 101% and the viability, T/C (compound 10 µM) was 72.1% and 88.9%. For the same molecule, the pIC50 was less than 5.00.

With `CC1(C)CCC(CN2CCN(c3ccc(C(=O)NS(=O)(=O)c4ccc(NCC5CCOCC5)c([N+](=O)[O-])c4)c(Oc4cnc5[nH]ccc5c4)c3)CC2)=C(c2ccc(Cl)cc2)C1` the viability, T/C (compound 0.0316 µM) was 93.2% and 90.6%, the viability, T/C (compound 0.1 µM) was 102% and 95.5% and the viability, T/C (compound 0.316 µM) was 101% and 85.6%. The viability, T/C (compound 1 µM) was 91.7% and 74%, the viability, T/C (compound 3.16 µM) was 70.5% and 30.9% and the pIC50 was 5.18 and 5.73.

`CC1COCCN1c1cc(-c2ccnn2C)c2ccnc(-c3ccn[nH]3)c2n1` (centres undefined) was tested, and the viability, T/C (compound 0.00316 µM) was 81.2% and 38.9%, the viability, T/C (compound 0.01 µM) was 54.9% and 37.5% and the viability, T/C (compound 0.0316 µM) was 35.7% and 19.3%. The viability, T/C (compound 0.1 µM) was 27% and 8.03%, the viability, T/C (compound 0.316 µM) was 15.8% and 5.94% and the viability, T/C (compound 1 µM) was 12.2% and 2.35%. For the same molecule, the pIC50 was 7.86 and > 8.50.

For `CC1COCCN1c1cc(C2(S(C)(=N)=O)CC2)nc(-c2ccnc3[nH]ccc23)n1` (centres undefined), the viability, T/C (compound 0.0316 µM) was 101% and 78.9%, the viability, T/C (compound 0.1 µM) was 67.4% and 88.1% and the viability, T/C (compound 0.316 µM) was 50.6% and 66.4%. The viability, T/C (compound 1 µM) was 30.4% and 46%, the viability, T/C (compound 3.16 µM) was 21.9% and 24.2% and the viability, T/C (compound 10 µM) was 11.6% and 9.82%. The pIC50 was 6.55 and 6.08.

With `CCN(c1cc(-c2ccc(CN3CCOCC3)cc2)cc(C(=O)NCc2c(C)cc(C)[nH]c2=O)c1C)C1CCOCC1` the viability, T/C (compound 0.00949 µM) was 81.6% and 96.5%, the viability, T/C (compound 0.03 µM) was 100% and 76.8% and the viability, T/C (compound 0.0949 µM) was 118% and 74.4%. For the same molecule, the viability, T/C (compound 0.3 µM) was 92.3% and 50.2%, the viability, T/C (compound 0.949 µM) was 92.2% and 44% and the viability, T/C (compound 3 µM) was 75.7% and 24.5%. For the same molecule, the pIC50 was < 5.52 and 6.36.

In the case of `CC[C@@]1(O)C(=O)OCc2c1cc1n(c2=O)Cc2cc3c(CN(C)C)c(O)ccc3nc2-1`, the viability, T/C (compound 0.000316 µM) was 69% and 95.9%, the viability, T/C (compound 0.001 µM) was 39.5% and 54.5% and the viability, T/C (compound 0.00316 µM) was 16.9% and 14%. For the same molecule, the viability, T/C (compound 0.01 µM) was 10.4% and 12.7%, the viability, T/C (compound 0.0316 µM) was 7.18% and 6.23% and the viability, T/C (compound 0.1 µM) was 7.59% and 4.68%. The pIC50 was 9.18 and 8.94.

In the case of `CCc1c2c(nc3ccc(O)cc13)-c1cc3c(c(=O)n1C2)COC(=O)[C@]3(O)CC`, the viability, T/C (compound 0.000949 µM) was 7.07% and 5.35%, the viability, T/C (compound 0.003 µM) was 7.03% and 4.74% and the viability, T/C (compound 0.00949 µM) was 5.45% and 2.28%. For the same molecule, the viability, T/C (compound 0.03 µM) was 2.45% and 0.63%, the viability, T/C (compound 0.0949 µM) was 2.17% and 0.53% and the viability, T/C (compound 0.3 µM) was 2.73% and 0.59%. The pIC50 was greater than 9.02.

For `COc1cc(C2c3cc4c(cc3C(OC3OC5COC(C)OC5C(O)C3O)C3COC(=O)C23)OCO4)cc(OC)c1O` (centres undefined), the viability, T/C (compound 0.00949 µM) was 79% and 92.3%, the viability, T/C (compound 0.03 µM) was 76.9% and 70.8% and the viability, T/C (compound 0.0949 µM) was 48.1% and 27.1%. For the same molecule, the viability, T/C (compound 0.3 µM) was 15.1% and 15%, the viability, T/C (compound 0.949 µM) was 14.4% and 10% and the viability, T/C (compound 3 µM) was 10.4% and 4.22%. The pIC50 was 7.06 and 7.28.

`COc1cc(Nc2ncc3c(n2)-c2ccc(Cl)cc2C(c2c(F)cccc2OC)=NC3)ccc1C(=O)O` was tested, and the viability, T/C (compound 0.00316 µM) was 69.6% and 17.2%, the viability, T/C (compound 0.01 µM) was 28.3% and 7.92% and the viability, T/C (compound 0.0316 µM) was 17.4% and 5.89%. For the same molecule, the viability, T/C (compound 0.1 µM) was 8.67% and 6.08%, the viability, T/C (compound 0.316 µM) was 7.8% and 4.66% and the viability, T/C (compound 1 µM) was 7.38% and 3%. The pIC50 was 8.26 and > 8.50.
